We go through six molecules from article PMC9782315, “Site-Specific Albumin-Selective Ligation to Human Serum Albumin under Physiological Conditions” (Bioconjugate Chemistry, 2022).

Series [1] addresses T1, HSA (Homo sapiens, UniProt P02768).
T1 construct: purchased Sigma Aldrich
Put plainly: Bio-layer interferometry (BLI) assay of non-covalent biotinylated RAEs with HSA. Format: binding. The conditions noted are these: human serum albumin (HSA). The procedure:
S5. BLI Assay for Biotinylated Non-covalent Peptidomimetics.
Figure S6 Chemical Structure of Non-covalent Biotinylated RAEs (NCB-LYL1-4, NCB-LYLG) Biotinylated Non-covalent RAEs was synthesized by replacing acrylamide with acetyl group to study the intrinsic binding affinity of peptidomimetics using bio-layer interferometry (BLI) assay. For BLI assay, 1 μM non-covalent biotinylated RAEs (Figure S6) solution was prepared by kinetic buffer as the bait. As the fish, HSA solution at various concentration prepared by serial dilution using kinetic buffer, and the last well of dilution was filled with kinetic buffer as the reference well. Using 96-well plate, the biosensors were equilibrated in kinetic buffer for 60s. Then biosensors dipped ligands […]
wells, kinetic buffer wells, HSA well, kinetic buffer wells again for 120s, 60s, 480s, 960s as loading, baseline, association, and dissociation step, respectively. The data was subtracted by reference wells and processed by ForteBio Data Analysis software to derive the Kd value using steady-state approximation by 1:1 model (Figure S7-S8)
Figure S7 Bio-layered Interferometry for NCB-LYL1-4 and NCB -LYL -G
(1 picture or pasted object on this page, not shown here)

The target of series [2] is T1, HSA. Briefly: Neutravidin pull-down assay for conjugation yield of biotinylated HSA. The series is classed as biochemical.
Method: Zeba spin desalting columns were pre-equilibrated by PBS buffer 3 times on
centrifugation (1500 x g, 1 minute). After conjugation, HSA-LYL conjugates passed
through the equilibrated Zeba desalting column. The flow through was collected and
further condensed by a 500 μL ultracentrifugation tube (MW cutoff = 3000) at 1 5000
rpm at 4 °C for 15 minutes. The resulting condensed solution was immediately
reconstituted by PBS (pH = 7.2), and the condensation process was repeated 2 times to
further remove biotinylated peptidomimetics. After that, the condensed HSA conjugate
(typically 20-50 μL) was diluted by 100 μL PBS for Neutravidin pull-down assay.
Using neutravidin-immobilized agarose, the NeutrAvidin pull-down assay intercepted
biotinylated proteins through biotin-avidin interaction. Therefore, the conjugation yield
can be determined by measuring the difference caused by NeutrAvidin pull -down.
The yield of conjugation is calculated based on the concentration difference of HSA
before and after passing through Neutrvidin agarose, which is calculated by following
𝑌𝑖𝑒𝑙𝑑 = 𝐶𝐻𝑆𝐴 𝑆𝑡𝑜𝑐𝑘−𝐶𝐻𝑆𝐴 𝐹𝑙𝑜𝑤−𝑡ℎ𝑟𝑜𝑢𝑔ℎ × 100% (1) […]
concentration was determined by Bicinchoninic acid (BCA) assay. […]
coulometric reactions were performed at 68°C for 30 minutes and the UV absorbance at
562 nm was measured by plate reader. […]
fluorescence intensity of corresponding Western blots.
was calculated without background subtraction .
[3] abbreviates: BLI, 1 μM non-covalent biotinylated RAE as bait, HSA serial dilution in kinetic buffer, association 480 s, dissociation 960 s, steady-state, 1:1 model, read-out: Kd.

SMILES strings stand for the structures. Like-named read-outs stand apart in the source and are kept apart here. Where a SMILES comes first, the peptide text is derived from it. [ ]: non-standard residue; d: D form. The star is where a group is joined. Biotin = O=C1N[C@H]2[C@H](CS[C@H]2CCCCC(=O)*)N1; Myristoyl = CCCCCCCCCCCCCC(=O)*; Aad = N[C@@H](CCCC(=O)O)C(=O)O; AEEA = NCCOCCOCC(=O)O

T1 sequence (P02768 25-609): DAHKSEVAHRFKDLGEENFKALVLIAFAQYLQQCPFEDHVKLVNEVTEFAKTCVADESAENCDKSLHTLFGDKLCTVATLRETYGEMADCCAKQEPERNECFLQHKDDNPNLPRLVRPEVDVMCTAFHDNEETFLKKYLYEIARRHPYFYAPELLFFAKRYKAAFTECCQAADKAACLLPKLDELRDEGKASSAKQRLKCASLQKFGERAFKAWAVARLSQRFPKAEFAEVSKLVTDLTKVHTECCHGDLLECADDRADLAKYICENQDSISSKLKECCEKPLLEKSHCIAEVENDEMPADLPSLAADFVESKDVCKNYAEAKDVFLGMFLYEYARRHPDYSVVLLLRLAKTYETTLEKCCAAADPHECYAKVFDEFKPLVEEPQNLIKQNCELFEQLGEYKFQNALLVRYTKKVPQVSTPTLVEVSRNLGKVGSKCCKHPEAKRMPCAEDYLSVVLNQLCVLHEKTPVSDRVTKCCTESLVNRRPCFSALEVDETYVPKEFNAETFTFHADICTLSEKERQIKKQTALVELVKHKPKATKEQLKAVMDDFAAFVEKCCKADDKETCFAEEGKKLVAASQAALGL

On to `CCCCCCCCCCCCCC(=O)N[C@H](CCC(=O)O)C(=O)N[C@@H](CCCCNC(C)=O)C(=O)N[C@@H](CCCC(=O)O)C(=O)N[C@H](CCC(=O)O)C(=O)NCCOCCOCC(=O)NCCOCCOCC(=O)N[C@@H](CCCCNC(=O)CCCC[C@@H]1SC[C@@H]2NC(=O)N[C@@H]21)C(N)=O` [NCB-LYL3] (Myristoyl-[dE]K(Ac)[Aad][dE][AEEA][AEEA]K(Biotin)-NH2), for which the Kd at 480 s at HSA [1] (setting [3]) is 2.4 µM.
On the same count and under the same terms, next, `CCCCCCCCCCCCCC(=O)N[C@H](C)C(=O)N[C@@H](CCCC(=O)O)C(=O)N[C@@H](CCCCNC(C)=O)C(=O)N[C@H](CCC(=O)O)C(=O)N[C@H](CO)C(=O)NCCOCCOCC(=O)NCCOCCOCC(=O)N[C@@H](CCCCNC(=O)CCCC[C@@H]1SC[C@@H]2NC(=O)N[C@@H]21)C(N)=O` [NCB-LYL4] (Myristoyl-[dA][Aad]K(Ac)[dE][dS][AEEA][AEEA]K(Biotin)-NH2): 2.8 µM.
As for `CCCCCCCCCCCCCC(=O)N[C@H](CCC(=O)O)C(=O)N[C@@H](CC(=O)O)C(=O)N[C@@H](CCCCNC(C)=O)C(=O)N[C@H](CO)C(=O)N[C@@H](CCCC(=O)O)C(=O)NCCOCCOCC(=O)NCCOCCOCC(=O)N[C@@H](CCCCNC(=O)CCCC[C@@H]1SC[C@@H]2NC(=O)N[C@@H]21)C(N)=O` [NCB-LYL1] (Myristoyl-[dE]DK(Ac)[dS][Aad][AEEA][AEEA]K(Biotin)-NH2), the Kd at 480 s on HSA [1] (setting [3]) came to 1.4 µM.
Still for that read-out and setting: the figure for `CCCCCCCCCCCCCC(=O)N[C@H](CCC(=O)O)C(=O)N[C@@H](CCCC(=O)O)C(=O)N[C@@H](CCCCNC(C)=O)C(=O)N[C@@H](CC(=O)O)C(=O)N[C@@H](Cc1ccc(O)cc1)C(=O)NCCOCCOCC(=O)NCCOCCOCC(=O)N[C@@H](CCCCNC(=O)CCCC[C@@H]1SC[C@@H]2NC(=O)N[C@@H]21)C(N)=O` [NCB-LYL2] (Myristoyl-[dE][Aad]K(Ac)DY[AEEA][AEEA]K(Biotin)-NH2) is 1 µM.
Regarding `O=C1N[C@H]2[C@H](CS[C@H]2CCCCC(=O)Oc2ccc([N+](=O)[O-])cc2)N1` [NBE, 4-Nitrophenyl biotin ester], on HSA [2] (10 μM HSA, 50 μM RAE or NBE, PBS pH 7.2, room temperature, 1 h, BCA read-out, 3 replications, no background subtraction), the “Conjugation Yield” value is listed as 99.0%. Besides, the “uptake by immobilized neutravidin agarose (conjugation yield, text)” value at HSA [2] (initial condition, physiological pH 7.2, 1 h) is approximately 100%.
For `CCCCCCCCCCCCCC(=O)NCC(=O)NCC(=O)N[C@@H](CCCCNC(C)=O)C(=O)NCC(=O)NCC(=O)NCCOCCOCC(=O)NCCOCCOCC(=O)N[C@@H](CCCCNC(=O)CCCC[C@@H]1SC[C@@H]2NC(=O)N[C@@H]21)C(N)=O` [NCB-LYLG] (Myristoyl-GGK(Ac)GG[AEEA][AEEA]K(Biotin)-NH2), the Kd at 480 s on HSA [1] (BLI assay, non-covalent (acetyl instead of acrylamide) biotinylated RAEs, read-out: Kd / binding affinity toward HSA) was found to be 12 µM.
